Consider 65 compounds from PubChem BioAssay (NCI).

Common to all, as to assay: NCI tumour cell line growth inhibition, 48 h
In assay [1] the test system is BT-549 breast.
Assay [2] deals with M19-MEL melanoma.
In assay [3] the test system is RXF-631 renal.
For assay [4], the system named is KM20L2 colon.
For assay [5], the system named is DLD-1 colon.
In assay [6] the test system is HOP-18 NSCLC.
The subject of assay [7] is MDA-N.
Assay [8] concerns XF 498 CNS.

Several values for one entry are separate records, joined by “and”; a condition that tells them apart may be missing. Equal entries are not always repeated.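 The compound was tested at five concentrations on cells cultured in 96-well plates, with a 48-hour exposure period. The concentration for 50% growth inhibition is given as GI50. Definition used: TGI = concentration required for complete inhibition of growth.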

Consider `Clc1cc(Cl)c(OCC#CI)cc1Cl`, for which, in assay [1], the GI50 is 7.21 µM and the TGI was determined as 19.8 µM.

As for `CCCCCCCCCCCC(=O)OCCOCCOCCOCCOCCOCc1ccc(OC)cc1`, the TGI in assay [2], in assay [3], in assay [4], in assay [5] and in assay [6] was more than 100 µM each time.

`CCOC(=O)C1Oc2ccc([N+](=O)[O-])c3c2C1(O)CCC3` (centres undefined): the TGI in assay [2], in assay [3] and in assay [5] was more than 100 µM each time.

Turning to `COc1ccc(-c2n[nH]nc2-c2cc(OC)c3c(c2OC)OCO3)cc1`, in assay [1], the GI50 was 0.544 µM and the TGI is 25.9 µM.

As for `N#CC(C(=O)CCC(=O)Nc1cccc(Cl)c1)c1ccccc1` (centres undefined), the TGI in assay [2], in assay [3], in assay [4], in assay [5] and in assay [6] was more than 100 µM each time.

As for `Cc1cc(N/N=C/c2nc(-c3ccc(Br)cc3)oc2C)c2cc(Cl)ccc2n1`, in assay [1], the GI50 is more than 100 µM and the TGI was more than 100 µM.

On to `CCCCCCc1cc(C(=O)Nc2cccc(C(F)(F)F)c2)nc(N)n1`, for which the TGI in assay [2], in assay [3], in assay [4], in assay [5] and in assay [6] was more than 100 µM each time.

Regarding `CSCC1CC(c2ccc(Cl)cc2)=NO1` (centres undefined), the TGI in assay [2], in assay [3], in assay [4], in assay [5] and in assay [6] was more than 100 µM each time.

In assay [7], `CCCCCCCCCCCCCCCCCC(=O)OCC(COC1OC(COP(=O)(O)O)C(O)C(O)C1O)OC(=O)CCCCCCCCCCCCCCCCC` (centres undefined) displayed a TGI of 20.1 µM.

Consider `C/C(=N\Nc1ccc2ccccc2n1)c1ccccn1`, for which, in assay [1], the GI50 was 0.256 µM and the TGI was determined as 16.6 µM.

Take `C[Si](C)(C)OC1(C#N)C2C3CC4C2C(=O)C2C4C3C21` (centres undefined): the TGI in assay [2], in assay [4], in assay [5] and in assay [6] was more than 100 µM in each case.

As for `CCN(C(=O)N1CCN(c2cc3c(cc2F)c(=O)c(C(=O)O)cn3C2CC2)CC1)c1nc(-c2ccc(C)cc2)cs1`, in assay [1], the GI50 was 0.336 µM and the TGI was 1.56 µM.

Regarding `O=C(c1ccccc1)C(CN1CCOCC1)c1ccccc1` (centres undefined), in assay [1], the GI50 was 1.48 µM and the TGI was 3.77 µM.

`O=C(/C(=C/c1ccc([N+](=O)[O-])cc1)c1ccccc1)c1ccccc1`: in assay [1], the GI50 was 2.57 µM and the TGI was found to be 7.12 µM.

On to `CCN1CCC(CCOC)(CN2c3ccccc3Sc3ccc(Cl)cc32)C1` (centres undefined), for which, in assay [1], the GI50 was 1.88 µM and the TGI is 3.68 µM.

With `O=C1C(=O)N(c2ccc(Cl)c(Cl)c2)C(=O)C(=O)C1c1nc2ccccc2s1`, the TGI in assay [2], in assay [4], in assay [5] and in assay [6] was more than 100 µM each time.

As for `N#C/C(=C\c1c(-c2ccccc2)[nH]c2ccccc12)S(=O)(=O)c1ccccc1`, in assay [1], the GI50 was 10 µM and the TGI was more than 56.9 µM.

Regarding `CN1CCN(Cc2ccc(NC(=O)c3cncc(C#Cc4cnc(N)c5ccncc45)c3)cc2C(F)(F)F)CC1`, in assay [1], the GI50 was 2.22 µM and the TGI is more than 46.6 µM.

Take `C=C1COC(/C=C(\C)CC/C=C(\C)CCl)C1` (centres undefined): the TGI in assay [2], in assay [4], in assay [5] and in assay [8] was more than 100 µM in each case.

As for `c1ccc2c(c1)c(NCCCCN1CCCCC1)cc1c3ccccc3c(NCCCCN3CCCCC3)cc21`, in assay [1], the GI50 was 20.7 µM and the TGI was 45.2 µM.

As to `O=[N+]([O-])c1cccc(-c2nc3sccn3c2-c2ccnc(NCCCNS(=O)(=O)c3cccc(F)c3)n2)c1`, in assay [1], the GI50 was 2.18 µM and the TGI worked out at 11.9 µM.

Regarding `C=CC(=O)N1CCN(c2ccc3cccc(NC(=O)c4cnc(C)cn4)c3n2)CC1`, in assay [1], the GI50 is 2.31 µM and the TGI was 21.6 µM.

Consider `O=C1c2ccccc2-c2c1c1ccc([N+](=O)[O-])cc1c(=O)n2CCCBr`, for which, in assay [1], the GI50 was more than 100 µM and the TGI is more than 100 µM.

For the compound `C=CCc1cc(OC)c2c(c1)C(O)CC(c1ccccc1)O2` (centres undefined), the TGI in assay [2], in assay [3], in assay [4], in assay [5] and in assay [6] was more than 100 µM each time.

Consider `COc1ccc(N=c2ssc3c(=S)ssc23)cc1`, for which the TGI in assay [2] was more than 100 µM; in assay [5], 54.5 µM.

`Cn1cnc2nc(Cl)nc(NC(C)(C)C(C)(C)O)c21`: the TGI in assay [4], in assay [5], in assay [8] and in assay [6] was more than 100 µM each time.

`COC(=O)C(Cc1ccccc1)NC(=O)NC(=O)NC(=O)CI` (centres undefined): in assay [1], the GI50 was 10 µM and the TGI came to 21.8 µM.

In the case of `O=C(O)C1(P(=O)(O)O)CC1`, the TGI in assay [2], in assay [4], in assay [5], in assay [8] and in assay [6] was more than 100 µM in each case.

With `Cc1ccc(C2=NOC3=c4ccccc4=CSC3=C2c2ccc([N+](=O)[O-])cc2)cc1`, in assay [1], the GI50 is 19.1 µM and the TGI came to 46.2 µM.

As for `O=C1OC(CCCl)(c2ccccc2)CC1CN1CCOCC1` (centres undefined), the TGI is 45.6 µM in assay [2], more than 100 µM in assay [4], 34 µM in assay [5] and 29.3 µM in assay [8].

On to `N/C(=N\N=C\c1ccc(-c2ccccc2)cc1)N[N+](=O)[O-]`, for which, in assay [1], the GI50 is 17.1 µM and the TGI is more than 100 µM.

With `O=C1C=C(Br)c2c(-c3ccccc3)oc3cccc1c23`, the TGI in assay [2] was more than 100 µM; in assay [3] it was more than 100 µM; in assay [4], more than 100 µM; in assay [5], more than 100 µM; in assay [7], 66 µM; in assay [6], more than 100 µM. The compound further displayed a TGI in assay [1] of more than 100 µM.

As for `Brc1cccc(C2SCc3nc4ccccc4n32)c1` (centres undefined), the TGI in assay [2] was 49.1 µM; in assay [5], 29.9 µM.

In the case of `O=C(N/N=C/c1ccc2c(c1)CCC2)c1ccccc1O`, the TGI in assay [7] was determined as 64.8 µM; in assay [1] it was 41.7 µM.

As for `CC(=O)NC1=C(OS(=O)(=O)c2ccc(C)cc2)CN(C)C1=O`, the TGI in assay [7] was 24.5 µM; in assay [1], 12 µM.

Regarding `O=C(C1CCCCC1)[C@@H]1[C@]2(C(=O)NC3CCCCC32)[C@@H]2CCCN2[C@@]12C(=O)NC1CCC(Cl)CC12` (some centres undefined), in assay [1], the GI50 is 145 µM and the TGI is 286 µM.

With `O=C1C(=O)c2c(nc3ccc(Cl)cn23)-c2ccccc21`, in assay [1], the GI50 was 0.502 µM and the TGI is 1.21 µM.

Regarding `O[C@H]1CO[C@H]2[C@@H]1OC[C@@H]2Oc1ccc(Nc2ccnc(Nc3ccc(O[C@H]4CO[C@H]5[C@@H]4OC[C@@H]5O)c(Cl)c3)n2)cc1Cl`, in assay [1], the GI50 is 2.2 µM and the TGI is 8.14 µM.

`O=C(O)C/C=C/CC(=O)O`: the TGI in assay [7] and in assay [1] was more than 100 µM each time.

For `CNC(=O)OCc1c(COC(=O)NC)c(C)n(-c2ccc(Br)cc2)c1C`, in assay [7], the TGI was 32 µM.

Turning to `Cc1ccc(C(=O)Nc2cccc(C(F)(F)F)c2)cc1Nc1nc(-c2cccnc2)nc2c1cnn2C`, in assay [1], the GI50 was 4.12 µM and 2.86 µM; the TGI is 14.5 µM and 8.91 µM.

Turning to `CC1=C(CCC(C)N(C)Cc2ccc(OCCCN3CCCC3)cc2)C(C)(C)CCC1` (centres undefined), in assay [1], the GI50 was 12.3 µM and the TGI was 27.1 µM.

Regarding `C[C@]12CC[C@H]3[C@@H](CCC4=CC(=O)CC[C@@H]43)[C@@H]1CC[C@@H]2OC(=O)CCc1ccccc1`, in assay [1], the GI50 was 17.5 µM and the TGI was 33.9 µM.

Regarding `CCOC(=O)C1=C(NC)OC/C1=N\NC(=O)c1ccccc1O`, the TGI in assay [2], in assay [4], in assay [5], in assay [8] and in assay [6] was more than 100 µM throughout.

For `C=CC(=O)Nc1cccc(C)c1Nc1cc(-c2cccnc2Cc2c(C)c(OC)cc(OC)c2C)ncn1`, in assay [1], the GI50 was 6.23 µM and the TGI came out at 29.6 µM.

As for `O=c1[nH]c2ccccc2nc1-c1c[nH]c2ccccc12`, in assay [1], the GI50 was more than 100 µM and the TGI was more than 100 µM.

In the case of `CC(CN1CCN(CCOCCO)CC1)CN1c2ccccc2Sc2ccc(Cl)cc21` (centres undefined), in assay [1], the GI50 was 2.45 µM and the TGI worked out at 6.67 µM.

With `COC(=O)Cn1c2c(c3c(O)cccc31)C(=O)c1ccccc1-2`, in assay [1], the GI50 was more than 100 µM and the TGI was more than 100 µM.

On to `Cc1cc2c3ccc(C)[n+](C)c3ccc2n1C`, for which, in assay [1], the GI50 was 2.27 µM and the TGI came to 13.1 µM.

`CCOC(=O)c1oc2ccc(OC)c3c2c1CCC3`: the TGI in assay [2], in assay [5] and in assay [8] was more than 100 µM throughout.

Consider `COc1ccc(C2CC(c3cc(OC)c(OC)c(OC)c3)=NN2C(C)=O)cc1OCC(=O)Nc1nc2ccc(C(F)(F)F)cc2s1` (centres undefined), for which, in assay [1], the GI50 was 3.55 µM and the TGI turned out to be 82 µM.

`CN(C)c1nc(=Nc2ccc3ccccc3c2)ss1`: the TGI in assay [4], in assay [5] and in assay [6] was more than 100 µM throughout.

`N#Cc1c(N/N=C/c2c(Cl)cccc2Cl)nc(N)nc1N1CCOCC1`: in assay [1], the GI50 is 18 µM and the TGI is more than 100 µM.

For the compound `COC1CC(OS(=O)(=O)c2ccc(C)cc2)C(OC(=O)c2ccccc2)C(C)O1` (centres undefined), the GI50 in assay [2], in assay [4] and in assay [5] was more than 100 µM in each case. The TGI is more than 100 µM in assay [2]; more than 100 µM in assay [4]; more than 100 µM in assay [5]; more than 100 µM in assay [8]; more than 10 µM in assay [6].

On to `COc1cccc(C=Nc2cc(C)ccn2)c1O.COc1cccc(C=Nc2cc(C)ccn2)c1O.[Cu]`, for which the GI50 in assay [7] was 16.3 µM; in assay [1] it was 16.5 µM. Moreover, the TGI came out at 41.3 µM in assay [7] and 42.4 µM in assay [1].

In the case of `CN(C)CCCN1c2ccccc2CCc2ccc(Cl)cc21`, in assay [1], the GI50 is 10.4 µM and the TGI stood at 22.2 µM.

Regarding `C=C1CC[C@@H]2[C@](C)(COC(C)=O)[C@@H](O)CC[C@@]2(C)[C@@H]1COc1ccc2ccc(=O)oc2c1`, in assay [1], the GI50 was 47.8 µM and the TGI was more than 100 µM.

Take `COc1cc2nc(N3CCCC3)nc(NCC3CCCCC3)c2cc1OC`: in assay [1], the GI50 is 1.41 µM and the TGI was 2.78 µM.

For the compound `Cn1c2c(cc(S(=O)(=O)c3ccccc3)c1=O)CCc1c-2cnn1-c1ccc(Cl)cc1`, in assay [1], the GI50 is 3.03 µM and the TGI was determined as 7.82 µM.

As to `CC(C)CC(CC1=CCC2CC1C2(C)C)C1=C(O)C(C)(C)C(=O)C(C)(C)C1=O` (centres undefined), in assay [1], the GI50 is 0.413 µM and the TGI came to 4.37 µM.

On to `Cc1ccc(NC(=O)/C=C/c2ccccc2)c(C(N)=O)c1`, for which, in assay [1], the GI50 was 12.5 µM and the TGI was more than 100 µM.

As to `CC(=O)OC1CCn2nnc(CO[Si](C)(C)C(C)(C)C)c21` (centres undefined), the TGI in assay [4], in assay [5], in assay [8] and in assay [6] was more than 100 µM each time.

`COc1ccc(-c2cc(-c3ccccc3)nc(SCCCC(=O)NO)n2)cc1`: in assay [1], the GI50 was 2.76 µM and the TGI was determined as 13.1 µM.

Take `COc1ccc(C(OCC2OC(n3ccc(NC(=O)c4ccccc4)nc3=O)C(O)C2O)(c2ccccc2)c2ccccc2)cc1` (centres undefined): the TGI in assay [7] came to 3.79 µM.

For `Cc1c(C#N)c(=O)[nH]c(=O)n1CCN1CCN(C(=O)NCCCCCCNC(=O)N2CCN(CCn3c(C)c(C#N)c(=O)[nH]c3=O)CC2)CC1`, the TGI in assay [2], in assay [4], in assay [5], in assay [8] and in assay [6] was more than 100 µM in each case.
